Laboratory results as given in paper PMC5870139 (Journal of the American Chemical Society, 2018).

Molecular target: T1, TagT (Bacillus subtilis, UniProt Q7WY78)
T1 sequence (Q7WY78 1-322): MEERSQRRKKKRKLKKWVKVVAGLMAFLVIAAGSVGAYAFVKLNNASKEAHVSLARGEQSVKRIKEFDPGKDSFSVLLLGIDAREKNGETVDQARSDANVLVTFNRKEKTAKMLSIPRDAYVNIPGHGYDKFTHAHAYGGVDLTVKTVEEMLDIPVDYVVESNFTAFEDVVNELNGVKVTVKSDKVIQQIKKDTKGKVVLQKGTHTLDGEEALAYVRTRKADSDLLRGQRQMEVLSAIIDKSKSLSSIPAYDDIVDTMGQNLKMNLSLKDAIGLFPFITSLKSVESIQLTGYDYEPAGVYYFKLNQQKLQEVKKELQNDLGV
Assay: transfer of radiolabelled WTA precursor, PAGE autoradiography
Type: biochemical
Settings: acceptor; co-substrate LIIA^WTA

Compound: CC(=O)N[C@H]1[C@H](O[C@H]2[C@H](O)[C@@H](NC(C)=O)[C@H](O[C@H]3[C@H](O)[C@@H](NC(C)=O)C(O)O[C@@H]3CO)O[C@@H]2CO)O[C@H](CO)[C@@H](O[C@@H]2O[C@H](CO)[C@@H](O[C@@H]3O[C@H](CO)[C@@H](O)[C@H](O)[C@H]3NC(C)=O)[C@H](O)[C@H]2NC(C)=O)[C@@H]1O (some centres unmarked) [n=3, chitin oligosaccharide containing five GlcNAcs]
- transfer of radiolabelled WTA precursor, PAGE autoradiography: LcpB and TagT transferred WTA onto chitin oligosaccharides containing five or more sugars

Compound: CC(=O)N[C@H]1[C@H](O[C@H]2[C@H](O)[C@@H](NC(C)=O)C(O[C@H]3[C@H](O)[C@@H](NC(C)=O)C(O[C@H]4[C@H](O)[C@@H](NC(C)=O)C(O[C@H]5[C@H](O)[C@@H](NC(C)=O)C(O[C@H]6[C@H](O)[C@@H](NC(C)=O)C(O)O[C@@H]6CO)O[C@@H]5CO)O[C@@H]4CO)O[C@@H]3CO)O[C@@H]2CO)O[C@H](CO)[C@@H](O)[C@@H]1O (some centres unmarked) [n=4, chitin oligosaccharide containing six GlcNAcs]
- transfer of radiolabelled WTA precursor, PAGE autoradiography: LcpB and TagT transferred WTA onto chitin oligosaccharides containing five or more sugars
